Experimental data from publication PMC6539809, “Development of Oxygen-Bridged Pyrazole-Based Structures as Cannabinoid Receptor 1 Ligands” (Molecules, 2019).
“And” between values parts separate entries of the source, which are not always exact repeats. Equal values may be shown once. Read-outs that look alike come from different tables or passages of the source.

Experiments:
[1] = target: T1, CB2 receptor (Mus musculus, UniProt P47936); assay: CB2 radioligand binding, [3H]-CP-55,940 competition in mouse spleen homogenate; settings: [3H]-CP-55,940, mouse spleen homogenate; mean ± standard error, five independent experiments in triplicate; read-out: KiCB2
T1 construct: from tissue; host or cells: mouse (CD1) spleen, membrane homogenate
Procedure: Affinities at CB1R and CB2R for compounds 1c–j were assessed by competition of [^3H]-CP-55,940 in mouse brain (minus cerebellum) and spleen homogenates, respectively. Radioligand binding experimental procedures previously reported by us were adopted.
(§1) Male CD1 mice weighing 30–35 g were killed by cervical dislocation and the brain (minus cerebellum) and spleen were rapidly removed and frozen. After thawing, tissues were homogenated in 20 vol. (wt/v) of ice-cold TME buffer (50 mM Tris-HCl, 1 mM EDTA and 3.0 mM MgCl2, pH 7.4). The homogenates were centrifuged at 1,086 ×g for 10 min at 4 °C, and the resulting supernatants were centrifuged at 45,000 ×g for 30 min.
[^3H]-CP-55,940 binding was performed using the method previously described by Ruiu et al.. Briefly, the membranes (30–80 µg of protein) were incubated with 0.5–1 nM of [^3H]-CP-55,940 for 1 h at 30 °C in a final volume of 0.5 mL of TME buffer containing 5 mg/mL of fatty acid-free bovine serum albumin. Non-specific binding was estimated in the presence of 1 µM of CP-55,940. All binding studies were performed in disposable glass tubes pre-treated with Sigma-Cote (Sigma Chemical Co., Ltd., Poole, UK), in order to reduce non-specific binding. The reaction was terminated by rapid filtration through Whatman GF/C filters presoaked in 0.5% polyethyleneimine (PEI) using a Brandell 36-sample harvester (Gaithersburg, MD, USA). Filters were washed five times with 4 mL aliquots of ice-cold Tris HCl buffer (pH 7.4) containing 1 mg/mL BSA. The filter bound radioactivity was measured in a liquid scintillation counter (Tricarb 2900, Packard, Meridien, […], USA) with 4 mL of scintillation fluid (Ultima Gold MV, Packard).
(§2) Protein determination was performed by means of a Bradford protein assay using BSA as a standard according to the protocol of the supplier (Bio-Rad, Milan, Italy).
(§3) All experiments were performed in triplicate and results were confirmed in at least five independent experiments. Data from radioligand inhibition experiments were analysed by nonlinear regression analysis of a Sigmoid Curve using Graph Pad Prism program. IC50 values were derived from the calculated curves and converted to Ki values as previously described.

[2] = target: T2, CB1 receptor (Mus musculus, UniProt P47746); assay: CB1 radioligand binding, [3H]-CP-55,940 competition in mouse brain (minus cerebellum) homogenate; settings: for Ki: mean ± standard error, five independent experiments in triplicate; for CB1-affinity decrease relative to 1a: compared with 1a (Ki 10.25 nM); for Selectivity KiCB2/KiCB1: ratio of KiCB2 to KiCB1
T2 construct: from tissue; host or cells: mouse (CD1) brain minus cerebellum, membrane homogenate
Procedure: Radioligand binding experimental procedures previously reported by us were adopted.
as §1
All binding studies were performed in disposable glass tubes pre-treated with Sigma-Cote (Sigma Chemical Co., Ltd., Poole, UK), in order to reduce non-specific binding. The reaction was terminated by rapid filtration through Whatman GF/C filters presoaked in 0.5% polyethyleneimine (PEI) using a Brandell 36-sample harvester (Gaithersburg, MD, USA). Filters were washed five times with 4 mL aliquots of ice-cold Tris HCl buffer (pH 7.4) containing 1 mg/mL BSA. The filter bound radioactivity was measured in a liquid scintillation counter (Tricarb 2900, Packard, Meridien, […], USA) with 4 mL of scintillation fluid (Ultima Gold MV, Packard).
as §2, §3

[3] = system: C57Bl6/J mice; assay: Acute food intake in fasted mice; format: in vivo, mouse
Procedure: To further evaluate the potential application of these CB1 antagonists in the control of food intake and in obesity treatment, compound 1b was preliminarily tested in comparison with SR141716A in an acute in vivo assay using C57Bl6/J mice. The evaluation was carried out according to the animal model previously reported by Di Marzo [19].
It is well known that CB1Rs mediate the hyperphagic effect of cannabinoids. […] To test the potential anti-obesity effect of the new CB1 antagonist 1b we performed food intake experiments according to the acute animal model described by Di Marzo [19]. For a comparison we also reported the results concerning the assumed lead compound of this new series, derivative 1a.
A widely described method was used for the screening of the new CB1 antagonists in the food intake animal model. C57Bl6/J mice weighing 20–25 g were housed individually on a reverse light-dark cycle in a room with temperature and humidity control. The mice were fasted for 18 h before testing. Vehicle or CB1 antagonists were administered by an intraperitoneal injection and 15 min later a known amount of food was presented. Food pellets were weighed after each hour for three hours. Rimonabant was used as internal positive control in order to evaluate the efficacy of each compound. All animal experiments were performed according to the UE (CEE N° 86/609) guidelines for the care and use of experimental animals.
Two-way ANOVA with Bonferroni post-testing was performed using GraphPad Prism version 5.00 for Windows (GraphPad Software, San Diego CA, USA).

[4] = system: CD1 mice; assay: Gastrointestinal transit (GIT), carmine marker; format: in vivo, mouse; settings: data not shown
Excerpt: The mouse isolated vas deferens is a nerve-smooth muscle preparation that serves as a highly sensitive and quantitative functional in vitro bioassay for cannabinoid CB1R agonists. The effect of CB1 agonists is related to the action on naturally expressed prejunctional neuronal CB1Rs to inhibit release of the contractile neurotransmitters, noradrenaline and ATP, which is provoked by electrical stimulation. It has been shown that CB1 antagonist derivatives are able to block or reduce the inhibition of the electrically evoked contraction amplitude of the vas deferens induced by CB1 agonists, with parallel dextral shifts in CB1R agonist log concentration-response curves in electrically stimulated tissues. According to previous studies concerning cannabinoid agents, a gastrointestinal transit test was adopted to confirm CB1 antagonism. […] Moreover, the capability of CB1 antagonist compounds both to block the constipation effect induced by cannabinoid agonists and to themselves increase themselves gastrointestinal motility has been reported.
The same procedure previously reported by Murineddu et al. was adopted to evaluate the effect of the compounds on GIT. CD1 mice weighing 30–35 g were used. Carmine (Sigma Chemical Co, St. Louis, MO, USA) was suspended (6% wt/v) in distilled water containing 0.5% methylcellulose and administered by gavage at the dose of 0.3 mL/mouse. Briefly, after 20 min from carmine administration, mice were sacrificed by cervical dislocation and the stomach and small intestine were removed and the omentum was separated, avoiding stretching. The length of the intestine was measured starting from the pyloric sphincter to the ileocecal junction. The distance travelled by the head of the marker was measured and expressed as a percent of the total length of the small intestine. Using this procedure, the marker was consistently found at approximately 50% of the small intestine, 20 min after its administration to naive mice.
20 min later, mice were killed by dislocation cervical and intestines were removed. […] The length of the intestine from the pyloric sphincter to the ileocecal junction and the distance travelled by the carmine front were both measured and recorded. Groups of n = 10 mice were used in each experiment.
Statistical analyses were performed by one-way ANOVA followed by Newman-Keuls post-hoc comparison.

[5] = target: T3, CB1Rs of mouse vas deferens (Mus musculus, UniProt P47746); assay: Isolated organ assay: electrically evoked contractions of mouse vas deferens; settings: cumulative concentration-response curve
T3 construct: naturally expressed prejunctional neuronal CB1Rs; from tissue; host or cells: isolated vas deferens of male albino CD1 mice
Procedure: Vas deferens was obtained from male albino CD1 mice weighing 30 to 40 g. Tissue was mounted in a 10 mL organ bath at an initial tension of 0.5 g using a previously described method [16]. The bath contained Krebs-Henseleit solution (118.2 mM NaCl, 4.75 mM KCl, 1.19 mM KH2PO4, 25.0 mM NaHCO3, 11.0 mM glucose, and 2.54 mM CaCl2), which was kept at 37 °C and bubbled with 95% O2 and 5% CO2. Isometric contractions were evoked by stimulation with 0.5 sec trains of three pulses of 110% maximal voltage (train frequency, 0.1 Hz; pulse duration, 0.5 msec) through platinum electrodes attached to the upper end of each bath and a stainless-steel electrode attached to the lower end. Stimuli were generated using a Grass S88K stimulator and then amplified (multiplexing pulse booster 316S; Ugo Basile, Comerio, Italy) and divided to yield separate outputs to four organ baths. Contractions were monitored using a computer equipped with a data recording and analysis system (PowerLab 400) linked via preamplifiers (QuadBridge) to an F10 transducer (Biological Instruments, Besozzo, Italy). Each tissue was subject to several periods of stimulation. […] The stimulator was then switched off for 15 min, after which the tissues were subjected to further periods of stimulation each lasting 5 min and separated by a stimulation-free period. The compounds to be assayed were added once the contractile responses to electrical stimulation were reproducible. Preparations were exposed to cumulative increasing concentrations of the compounds to obtain concentration-response curves in the case of CB1 agonist (and partial agonist) compounds. […] Inhibition of the electrically evoked twitch response was expressed in percentage terms and was calculated by comparing the amplitude of the twitch response after each addition of the agonist compound (alone or in the presence of a potential CB1 antagonist) with the amplitude detected in absence of the compounds to be assayed (basal value). The pA2 values for competitive antagonism were calculated by Schild regression analysis [37]. Data were plotted as log antagonist concentration versus log [(antagonist concentration/agonist concentration)-1].

[6] = system: P-ERK 1/2 expression in mouse neuroblastoma N1E-115 cells (CB1Rs); assay: P-ERK 1/2 expression in N1E-115 cells (Western blot); format: cell-based; settings: 10 min exposure
Procedure: Agonist or antagonist activity of the new derivatives towards CB1Rs were assayed through in vitro testing based on the determination of phosphorylated ERK 1/2 (P-ERK 1/2) expression in a mouse neuroblastoma N1E-115 cell line. As previously reported, this cell line expresses CB1Rs but not CB2Rs; moreover, it has been shown that the exposure of N1E-115 cells to the cannabinoid agonists arachidonyl-2-chloroethylamide (ACEA) and WIN 55-212,2 induces a rapid phosphorylation and activation of the ERK 1/2. The addition of CB1 antagonists as SR141716A abolishes the response induced by the cannabinoid agonists.
N1E-115 cells were grown at 37 °C in humidified 5% CO2 in Dulbecco’s Modified Eagle’s Medium (high glucose supplemented with 10% fetal bovine serum (FBS), 1 μg/mL penicillin-streptomycin, 2 mM L-glutamine, 2.5 μg/mL amphotericin B and 50 μg/mL gentamicin). […] Tested and reference compounds were dissolved in Dulbecco’s phosphate buffered saline (D-PBS) with 1% DMSO and treatments were performed in a volume of 10 μL/mL of cell suspension.
P-ERK 1/2 expression was determined through Western blot analysis according to the previously reported procedure. One-way ANOVA was performed as a statistical analysis using the Graph Pad Prism program (San Diego, CA, USA).
The same procedure was adopted to determine CB1 specific antagonism for compounds which had no effect on P-ERK 1/2 expression themselves. In these last cases, WIN55,212-2 at 25 nM as a reference cannabinoid agonist agent and the new CB1 antagonists at 150–200 nM were employed.

[7] = [3H]-CP 55,940, mouse brain (minus cerebellum) homogenate, read-out: KiCB1

T1 sequence (P47936 whole entry): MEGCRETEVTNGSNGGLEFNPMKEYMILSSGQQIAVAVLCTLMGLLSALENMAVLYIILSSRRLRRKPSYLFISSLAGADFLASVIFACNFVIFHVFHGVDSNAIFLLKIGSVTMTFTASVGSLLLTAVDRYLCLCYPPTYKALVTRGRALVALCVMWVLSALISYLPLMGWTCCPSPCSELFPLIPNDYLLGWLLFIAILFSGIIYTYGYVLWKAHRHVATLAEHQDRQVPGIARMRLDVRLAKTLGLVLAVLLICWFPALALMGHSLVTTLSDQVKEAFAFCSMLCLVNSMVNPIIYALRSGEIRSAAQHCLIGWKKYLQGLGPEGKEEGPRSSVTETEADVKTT
T2 sequence (P47746 whole entry): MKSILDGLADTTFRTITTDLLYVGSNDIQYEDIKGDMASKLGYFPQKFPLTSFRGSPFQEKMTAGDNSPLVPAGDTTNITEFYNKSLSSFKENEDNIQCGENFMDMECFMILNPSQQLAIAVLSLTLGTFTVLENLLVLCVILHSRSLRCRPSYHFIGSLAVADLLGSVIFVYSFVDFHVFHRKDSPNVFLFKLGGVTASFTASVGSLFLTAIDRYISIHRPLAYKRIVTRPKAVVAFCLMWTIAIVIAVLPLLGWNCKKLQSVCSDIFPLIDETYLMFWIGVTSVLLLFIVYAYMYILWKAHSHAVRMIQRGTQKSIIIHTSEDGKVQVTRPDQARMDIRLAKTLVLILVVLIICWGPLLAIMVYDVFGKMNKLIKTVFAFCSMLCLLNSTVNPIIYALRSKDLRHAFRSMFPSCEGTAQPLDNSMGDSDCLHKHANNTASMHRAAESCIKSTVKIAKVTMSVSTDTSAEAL
T3 sequence (P47746 whole entry): as above

Structure (SMILES)	Ki [1] [nM]	melting point [°C]	Ki [2, 7]	CB1-affinity decrease relative to 1a [2] [fold]	further results
O=C(Nc1ccccc1)c1nn(-c2ccc(Cl)cc2Cl)c2c1CCOc1cc(Cl)ccc1-2 [Compound 1f, 8-Chloro-1-(2,4-dichlorophenyl)-N-phenyl-4,5-dihydrobenzo-1H-6-oxa-cyclohepta[1,2-c]pyrazole-3-carboxamide]	4120 ± 620	130	233 ± 33 nM	23	–
COc1ccc(NC(=O)c2nn(-c3ccc(Cl)cc3Cl)c3c2CCOc2cc(Cl)ccc2-3)cc1 [Compound 1i, 8-Chloro-1-(2,4-dichlorophenyl)-N-(p-methoxyphenyl)-4,5-dihydrobenzo-1H-6-oxa-cyclohepta[1,2-c]pyrazole-3-carboxamide]	> 5000	214	330 ± 45 nM	–	–
Cc1c(C(=O)NN2CCCCC2)nn(-c2ccc(Cl)cc2Cl)c1-c1ccc(Cl)cc1 [rimonabant, N-piperidinyl-5-(4-chlorophenyl)-1-(2,4-dichlorophenyl)-4-methyl-1H-pyrazole-3-carboxamide, reference compound]	–	–	–	–	Food intake effect over time ([3]; 10 mg/kg i.p., at 2 h and 3 h): fades away; Observable side effects / behavioural effects ([3]; 20 mg/kg (highest assayed dosage)): marked behavioural effects
O=C(NN1CCCCCC1)c1nn(-c2ccc(Cl)cc2Cl)c2c1CCOc1cc(Cl)ccc1-2 [Compound 1d, 8-Chloro-1-(2,4-dichlorophenyl)-N-homopiperidin-1-yl-4,5-dihydrobenzo-1H-6-oxa-cyclohepta[1,2-c]pyrazole-3-carbohydrazide]	2000 ± 50	137 to 138	< 60 nM and 35 nM	3.5	Effect on gastrointestinal transit compared with that of 1b [4]: Analogue results; Selectivity KiCB2/KiCB1 [2]: > 57
Cc1ccc(NC(=O)c2nn(-c3ccc(Cl)cc3Cl)c3c2CCOc2cc(Cl)ccc2-3)cc1 [Compound 1h, 8-Chloro-1-(2,4-dichlorophenyl)-N-tolyl-4,5-dihydrobenzo-1H-6-oxa-cyclohepta[1,2-c] pyrazole-3-carboxamide]	> 5000	181	–	–	Ki ([2]; KiCB1, [3H]-CP 55,940, mouse brain (minus cerebellum) homogenate): 429 ± 49 nM
O=C(Nc1ccc(C(F)(F)F)cc1)c1nn(-c2ccc(Cl)cc2Cl)c2c1CCOc1cc(Cl)ccc1-2 [Compound 1j]	> 5000	249 to 250	459 ± 57 nM	–	–
CC1(C)C2CCC(CNC(=O)c3nn(-c4ccc(Cl)cc4Cl)c4c3CCOc3cc(Cl)ccc3-4)C1C2 (stereo not shown) [Compound 1e, 8-Chloro-1-(2,4-dichlorophenyl)-N-(6,6-dimethyl-bicyclo[3.1.1]hept-2-yl-methyl)-4,5-dihydrobenzo-1H-6-oxa-cyclohepta[1,2-c]pyrazole-3-carboxamide]	–	142 to 143	–	–	Maximum inhibition of the amplitude of electrically-evoked contractions [5]: around 60%; Concentration up to which a dose response effect on P-ERK 1/2 expression was highlighted ([6]; N1E-115 cells): ≤ 75 nM; Effect on P-ERK 1/2 expression (agonist activity towards CB1) ([6]; compound alone, 1b–d at concentrations up to 1 μM): CB1 agonist activity
O=C(NN1CCCC1)c1nn(-c2ccc(Cl)cc2Cl)c2c1CCOc1cc(Cl)ccc1-2 [Compound 1c, 8-Chloro-1-(2,4-dichlorophenyl)-N-pyrrolidin-1-yl-4,5-dihydrobenzo-1H-6-oxa-cyclohepta[1,2-c]pyrazole-3-carbohydrazide]	4500 ± 500	175	< 60 nM and 55.1 nM	5.4	Effect on gastrointestinal transit compared with that of 1b [4]: Analogue results; Selectivity KiCB2/KiCB1 [2]: > 57
O=C(Nc1ccc(Cl)cc1)c1nn(-c2ccc(Cl)cc2Cl)c2c1CCOc1cc(Cl)ccc1-2 [Compound 1g, 8-Chloro-1-(2,4-dichlorophenyl)-N-(p-chlorophenyl)-4,5-dihydrobenzo-1H-6-oxa-cyclohepta[1,2-c]pyrazole-3-carboxamide]	> 5000	239	318 ± 36 nM	–	–
